Experimental data taken from the NIST ThermoML archive (doi:10.1016/j.jct.2012.05.002).
Numbers after ± are expanded uncertainties.

Assay: Boiling temperature at pressure P
Conditions: 101.3 kPa; Liquid; Closed cell (Static) method

For `COC(=O)OC` [dimethyl carbonate], the “Boiling temperature at pressure P” value was 64.69 ± 0.11 °C.

For `CO` [methanol], the “Boiling temperature at pressure P” value was 90.26 ± 0.11 °C.
